According to patent publication US20050107386A1, “Methods of treating diseases and disorders by targeting multiple kinases” (priority 2003, published 2005):

Legend:
Type in all cases: biochemical
Conditions in all cases: 3 μM; percent of control kinase activity
Fes(h) = Fes(h) (Homo sapiens, UniProt P07332); assay: Fes(h) kinase assay
Experimental: (§1) Six compounds (presumptive single agents) were tested against a panel of 50 kinases. The results are presented in Table 2; numbers for each kinase indicate the percent of control kinase activity in the presence of a 3μM concentration of the indicated agent.
(§2) Agents that target two or more different kinases are useful in the methods of the invention as described elsewhere herein. Such compounds may be identified, and their effect on certain kinases may be identified, using the assays briefly described below in Examples 4-83. Each of these assays was carried out as described in Davies et al., Biochem. J., 351:95-105 (2000). All assays were carried out at 10 μM ATP unless otherwise noted.
(§3) In a final reaction volume of 25 μl, Fes(h) (5-10 mU) is incubated with 8 mM MOPS pH 7.0, 0.2 mM EDTA, 0.1 mg/ml poly(Glu, Tyr) 4:1, 10 mM MgAcetate and [γ-^33P-ATP] (specific activity approx. 500 cpm/pmol, concentration as required). The reaction is initiated by the addition of Mg^2+ [γ-^33P-ATP]. After incubation for 40 minutes at room temperature, the reaction is stopped by the addition of 5 μl of a 3% phosphoric acid solution. 10 μl of the reaction is then spotted onto a Filtermat A and washed three times for 5 minutes in 75 mM phosphoric acid and once in methanol prior to drying and scintillation counting.

ZAP-70(h) = target: T1, ZAP-70(h) (Homo sapiens, UniProt P43403); assay: ZAP-70(h) kinase assay
T1 sequence (P43403 1-619): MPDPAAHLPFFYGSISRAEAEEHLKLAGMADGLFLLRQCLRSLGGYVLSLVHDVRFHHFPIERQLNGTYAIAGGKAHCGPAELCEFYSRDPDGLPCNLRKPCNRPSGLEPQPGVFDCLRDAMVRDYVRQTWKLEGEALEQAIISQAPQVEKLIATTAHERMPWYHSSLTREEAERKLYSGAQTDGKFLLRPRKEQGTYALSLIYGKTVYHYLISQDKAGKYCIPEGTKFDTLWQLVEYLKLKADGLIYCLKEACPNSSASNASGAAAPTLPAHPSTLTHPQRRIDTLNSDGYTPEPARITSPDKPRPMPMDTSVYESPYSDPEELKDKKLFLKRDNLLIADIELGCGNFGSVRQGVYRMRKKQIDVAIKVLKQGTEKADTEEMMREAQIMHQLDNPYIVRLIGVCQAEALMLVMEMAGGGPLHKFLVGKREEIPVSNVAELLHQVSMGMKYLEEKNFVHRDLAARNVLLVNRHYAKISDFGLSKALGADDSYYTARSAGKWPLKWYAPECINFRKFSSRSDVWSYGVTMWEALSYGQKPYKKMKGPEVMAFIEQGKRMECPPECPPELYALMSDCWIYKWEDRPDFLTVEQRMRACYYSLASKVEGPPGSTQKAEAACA
Experimental: as §1, §2
(§4) In a final reaction volume of 25 μl, ZAP-70 (h) (5-10 mU) is incubated with 50 mM Tris pH 7.5, 0.1 mM EGTA, 0.1 mM NaVanadate, 0.1% β-mercaptoethanol, 0.1 mg/ml poly(Glu, Tyr) 4:1, 10 mM MnCl2, 10 mM MgAcetate and [γ-^33P-ATP] (Specific activity approx. 500 cpm/pmol, concentration as required). The reaction is initiated by the addition of Mg^2+ [γ-^33P-ATP]. After incubation for 40 minutes at room temperature, the reaction is stopped by the addition of 5 μl of a 3% phosphoric acid solution. 10 μl of the reaction is then spotted onto a Filtermat A and washed three times for 5 minutes in 75 mM phosphoric acid and once in methanol prior to drying and scintillation counting.

PDK1(h) = target: T2, PDK1(h) (Homo sapiens, UniProt O15530); assay: PDK1(h) kinase assay
T2 sequence (O15530 1-556): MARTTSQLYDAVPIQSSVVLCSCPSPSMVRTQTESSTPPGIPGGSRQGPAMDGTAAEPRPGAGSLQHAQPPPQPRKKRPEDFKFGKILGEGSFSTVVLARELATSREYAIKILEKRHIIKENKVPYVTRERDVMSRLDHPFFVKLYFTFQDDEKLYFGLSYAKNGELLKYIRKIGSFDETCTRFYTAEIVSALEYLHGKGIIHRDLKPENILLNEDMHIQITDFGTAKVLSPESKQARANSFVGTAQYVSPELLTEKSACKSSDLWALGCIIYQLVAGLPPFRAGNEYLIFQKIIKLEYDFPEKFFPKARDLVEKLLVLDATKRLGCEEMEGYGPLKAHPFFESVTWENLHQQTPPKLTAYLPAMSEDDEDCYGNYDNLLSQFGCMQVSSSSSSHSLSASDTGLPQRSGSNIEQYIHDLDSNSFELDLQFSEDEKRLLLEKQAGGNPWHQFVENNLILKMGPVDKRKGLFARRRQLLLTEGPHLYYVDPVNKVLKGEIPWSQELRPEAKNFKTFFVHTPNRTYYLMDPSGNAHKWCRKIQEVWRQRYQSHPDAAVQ
Experimental: as §1, §2
as §4, with “PDK1” for “ZAP-70”, “100 μM […] (SEQ ID NO:13) (PDKtide),” for “0.1 mM EGTA, 0.1 mM NaVanadate,”, “β-mercaptoethanol,” for “β-mercaptoethanol, 0.1 mg/ml poly(Glu, Tyr) 4:1, 10 mM MnCl2,”, “(specific” for “(Specific”, “P30 filtermat” for “Filtermat A”

CK2(h) = CK2(h) (Homo sapiens, UniProt P68400); assay: CK2(h) kinase assay
Sequence of CK2(h) (P68400 whole entry): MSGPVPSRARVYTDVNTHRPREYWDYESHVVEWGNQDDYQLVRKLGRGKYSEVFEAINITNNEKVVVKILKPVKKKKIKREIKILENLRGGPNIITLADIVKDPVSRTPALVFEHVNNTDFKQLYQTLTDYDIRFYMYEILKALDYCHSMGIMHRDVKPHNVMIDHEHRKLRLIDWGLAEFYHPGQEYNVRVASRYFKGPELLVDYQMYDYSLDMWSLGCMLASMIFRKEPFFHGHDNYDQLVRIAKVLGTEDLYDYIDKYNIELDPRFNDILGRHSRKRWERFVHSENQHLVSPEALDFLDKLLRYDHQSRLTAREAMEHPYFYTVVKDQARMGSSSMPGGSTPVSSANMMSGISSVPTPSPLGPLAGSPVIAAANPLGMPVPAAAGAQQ
Sequence of CK2(h) (P67870 whole entry partner): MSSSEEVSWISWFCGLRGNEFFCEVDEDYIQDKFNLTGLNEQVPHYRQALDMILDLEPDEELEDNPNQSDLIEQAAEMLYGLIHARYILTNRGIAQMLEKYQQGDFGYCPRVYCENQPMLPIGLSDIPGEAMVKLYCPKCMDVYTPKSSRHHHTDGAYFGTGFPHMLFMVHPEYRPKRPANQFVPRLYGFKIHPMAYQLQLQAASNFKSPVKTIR
Experimental: as §1, §2
as §3, with “CK2(h)” for “Fes(h)”, “20” for “8”, “Hepes” for “MOPS”, “7.6, 0.15 M NaCl, 0.1” for “7.0, 0.2”, “5 mM DTT, 0.1% Triton X-100, 165 μM […] (SEQ ID NO:6),” for “0.1 mg/ml poly(Glu, Tyr) 4:1,”, “P30 filtermat” for “Filtermat A”

Sequence of Fes(h) (P07332 whole entry): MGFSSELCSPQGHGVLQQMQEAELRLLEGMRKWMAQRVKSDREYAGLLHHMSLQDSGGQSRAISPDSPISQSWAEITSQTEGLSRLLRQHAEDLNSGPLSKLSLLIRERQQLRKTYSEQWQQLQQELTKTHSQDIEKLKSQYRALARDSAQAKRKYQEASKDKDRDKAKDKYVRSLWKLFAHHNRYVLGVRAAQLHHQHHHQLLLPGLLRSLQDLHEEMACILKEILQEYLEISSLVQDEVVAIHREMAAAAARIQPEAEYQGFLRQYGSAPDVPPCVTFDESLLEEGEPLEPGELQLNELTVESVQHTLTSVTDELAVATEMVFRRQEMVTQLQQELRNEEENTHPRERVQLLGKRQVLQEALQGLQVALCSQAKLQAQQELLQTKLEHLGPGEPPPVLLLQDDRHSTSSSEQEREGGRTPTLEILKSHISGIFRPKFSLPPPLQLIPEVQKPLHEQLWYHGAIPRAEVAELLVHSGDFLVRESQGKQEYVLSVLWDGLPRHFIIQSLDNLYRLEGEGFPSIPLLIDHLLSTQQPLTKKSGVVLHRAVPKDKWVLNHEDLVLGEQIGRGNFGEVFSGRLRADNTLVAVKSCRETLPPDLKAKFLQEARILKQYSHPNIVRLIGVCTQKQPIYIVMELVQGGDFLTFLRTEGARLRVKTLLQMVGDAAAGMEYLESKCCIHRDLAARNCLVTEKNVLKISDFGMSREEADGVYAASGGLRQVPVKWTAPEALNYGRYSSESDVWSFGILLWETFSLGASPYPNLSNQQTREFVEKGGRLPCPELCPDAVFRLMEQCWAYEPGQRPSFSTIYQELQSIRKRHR

| Inhibitory activity (% of control), Fes(h) (Fes(h)) | Inhibitory activity (% of control), ZAP-70(h) (ZAP-70(h)) | Inhibitory activity (% of control), PDK1(h) (PDK1(h)) | Inhibitory activity (% of control), CK2(h) (CK2(h)) | SMILES |
| --- | --- | --- | --- | --- |
| 10 % of control | 40 % of control | 58 % of control | 41 % of control | CC(C)Cc1nc(-c2ccc3[nH]nc(-c4ccc5cc(OCCN6CCCC6)ccc5c4)c3c2)n[nH]1 [CC002, 5-(5-Isobutyl-1H-[1,2,4]Triazol-3-yl)-3-[6-(2-Pyrrolidin-1-yl-Ethoxy)-Naphthalen-2-yl]-1H-Indazole] |
| 70 % of control | 77 % of control | 43 % of control | 50 % of control | Fc1ccc(-c2n[nH]c3ccc(-c4n[nH]c(C5CCCC5)n4)cc23)cc1 [CC006, 5-(5-Cyclopentyl-1H-[1,2,4]triazol-3-yl)-3-(4-fluoro-phenyl)-1H-indazole, reference compound] |
| 8 % of control | 26 % of control | 59 % of control | 74 % of control | CCN1CCC[C@H]1COc1ccc2cc(-c3n[nH]c4ccc(-c5nc(CC(C)(C)C)n[nH]5)cc34)ccc2c1 [CC005, 2-[((2s)-1-ethylpyrrolidin-2-yl)methoxy]-6-{5-[3-(2,2-Dimethylpropyl)(1H-1,2,4,-triazol-5-yl)](1H-indazol-3-yl)}naphthalene] |
| 70 % of control | 68 % of control | 70 % of control | 98 % of control | CC(C)(C)Cc1nc(-c2ccc3[nH]nc(-c4ccc5cc(OCc6ccccn6)ccc5c4)c3c2)n[nH]1 [CC004, 5-[5-(2,2-Dimethyl-propyl)-1H-[1,2,4]triazol-3-yl]-3-[6-(pyridine-2-ylmethoxy)-naphthalen-2-yl]-1H-indazole] |
| 41 % of control | 87 % of control | 97 % of control | 27 % of control | O=C(NC1CCCC1)c1cccc(-c2n[nH]c3ccc(-c4nc[nH]n4)cc23)c1 [CC007, 3-(5-(1H-1,2,4-triazol-3-yl)(1H-indazol-3-yl))phenyl-N-cyclopentylcarboxamide, reference compound] |

| SMILES | Inhibitory activity (% of control), Fes(h) (Fes(h)) | Inhibitory activity (% of control), ZAP-70(h) (ZAP-70(h)) | Inhibitory activity (% of control), PDK1(h) (PDK1(h)) | Inhibitory activity (% of control), CK2(h) (CK2(h)) |
| --- | --- | --- | --- | --- |
| COc1ccc2cc(-c3n[nH]c4ccc(-c5n[nH]c(CN6CCOCC6)n5)cc34)ccc2c1 [CC001, 3-(6-Methoxynaphthalen-2-yl)-5-(5-Morpholin-4-Ylmethyl-1H-[1,2,4]Triazol-3-yl)-1H-Indazole] | 34 % of control | 105 % of control | 59 % of control | 45 % of control |
